Source: patent US20040091479A1, “T-cell epitope of the papillomavirus l1 and e7 protein and use thereof in diagnostics and therapy” (priority 2000, published 2004)

Experiments:
[1] = tested on: CVLP-stimulated T cells (CD4-positive); assay: Restimulating HPV16 CVLP-stimulated T cells with BLCL presenting HPV16 peptide pools (example 7); assay type: cell-based, human; details: peptide common to two reactive HPV16 pools; CD4/IFNγ
Excerpt: (§1) In analogy with example 6, human T cells derived from a non-HLA-typed blood donor were stimulated with HPV16L1ΔC*E71-55 CVLPs and harvested.
The 20mer peptides P1 to 51 were assembled into peptide pools A to H and 1 to 7, respectively, in accordance with the following matrix
The T cells were then restimulated as described in example 6, fixed, permeabilized and stained. The analysis also took place as described in example 6.

[2] = tested on: peptide-stimulated murine CD8-positive T cells; assay: Restimulating HPV18 peptide-stimulated murine T cells with peptide-presenting LKK cells (IFNγ FACScan); assay type: cell-based, C3H mice; details: for proportion of CD8-positive T cells reactive on the basis of IFNγ expression: 1 μg peptide/ml, LKK cells, T cells of HPV18 CVLP-inoculated C3H mice, FIG. 3, 4; for T cell epitope assignment: conclusion from FIG. 3, 4
Procedure: Murine T cells (4×10^5) derived from C3H mice inoculated with HPV18 L1ΔCDIE71-53DI CVLPs and HPV18 L1ΔCDIE71-6ODI CVLPs were stimulated for 5 weeks with HPV18 L1 or E7 peptide pools at 37° C., with the weekly addition of 1 μg of each individual peptide/ml and 10^5 antigen-presenting cells (irradiated splenocytes), and harvested. The cells were then restimulated, at 37° C. and in 100 μl of medium, with 1 μg of the peptides given on the X axis in FIG. 3/ml and 10^5 antigen-presenting cells (LKK) in the presence of 10 IU of IL2/ml. Cells which were only incubated with buffer served as the negative control.
1 μl of monensin (300 μm) was added after an hour. The cells were incubated at 37° C. for a further 5 hours. The cells were then fixed and permeabilized and stained with α-mouse CD8/PE, with α-mouse CD4/cychrome and with α-mouse interferony/FITC. The labeling of the cells was analyzed in a FACScan Calibur and the results of the measurement were analyzed using Cellquest software.

[3] = tested on: peptide-stimulated murine CD8 T cells; assay: Restimulating HPV18 peptide-stimulated murine T cells with peptide-presenting RMA cells (example 16); assay type: cell-based; details: for reactive CD8-positive T cells (IFNγ, FACScan): RMA cells as antigen-presenting cells, FIG. 15; for T cell epitope assignment: conclusion from FIG. 15
Procedure: In analogy with example 5, murine T cells derived from CVLP-inoculated mice were stimulated with L1 or E7 peptide pools in the added presence of antigen-presenting cells. The cells were then restimulated with the peptides given on the X axis in FIG. 15 (Q3 and Q4 in the upper part of FIG. 15 and L1474E71-8, E72-11 and E71-8 in the lower part of FIG. 15) and also antigen-presenting cells (RMA). Cells which were only incubated with buffer served as the negative control.
The experiment was also analyzed in analogy with example 5, with the reactive CD8-positive cells being determined by means of antibody staining and FACScan.

[4] = tested on: CVLP-stimulated CD8-positive T cells; assay: Restimulating HPV16 CVLP-stimulated T cells with BLCL presenting HPV16 peptide pools (example 14); assay type: cell-based, human; details: peptide common to two reactive HPV16 pools; CD8/IFNγ
Procedure: as §1
The T cells were then restimulated, at 37° C. and in 100 μl of medium, with the peptide pools from example 7 and 10^5 antigen-presenting cells (donor-identical BLCL) in the presence of 10 IU of IL2/ml. Use was made, in this connection, of quantities of the peptide pools which were such that 1 μg/ml was added in the case of each individual peptide. Cells which were only incubated with buffer served as the negative control, while cells which were incubated with the HPV16 L1 or E7 peptide pool served as positive controls.
(§2) 1 μl of monensin was added after an hour. The cells were then incubated at 37° C. for a further 5 hours. After that, the cells were fixed and permeabilized and stained with α-human CD8/APC, with α-human CD4/PerCP and with α-human IFNγ/FITC. The labeling of the cells was examined in a FACScan Calibur and the results of the measurements were analyzed using Cellquest software.

[5] = tested on: peptide-stimulated CD8-positive murine T cells; assay: Restimulating HPV16 L1 peptide-stimulated murine T cells with peptide-presenting JAWS cells (IFNγ FACScan); assay type: cell-based, C57BL/6 mice; details: for proportion of CD8-positive T cells reactive on the basis of IFNγ expression: 1 μg peptide/ml, JAWS cells, T cells of HPV16L1ΔC*E71-55 CVLP-inoculated C57BL/6 mice, FIG. 1; for T cell epitope assignment: conclusion from FIG. 1
Procedure: Murine T cells (4×10^5) derived from HPV16L1ΔC*E71-55 CVLP-inoculated C57BL/6 mice were stimulated for 5 weeks with HPV16 L1 peptide pools at 37° C., with the weekly addition of 1 μg of each individual peptide/ml and 10^5 antigen-presenting cells (irradiated splenocytes), and harvested. The cells were subsequently restimulated, in 100 μl of medium at 37° C., with 1 μg of the peptides given on the X axis in FIG. 1/ml and 10^5 antigen-presenting cells (JAWS) in the presence of 10 IU of IL2/ml. Cells which were only incubated with buffer serve as the negative control.
After an hour, 1 μl of monensin (300 μM) was added. The cells were incubated at 37° C. for a further 5 hours. The cells were then fixed and permeabilized and stained with α-mouse CD8/PE, with α-mouse CD4/cychrome and with α-mouse interferon γ/FITC. The labeling of the cells was analyzed in a FACScan caliber and the results of the measurements were analyzed using Cellquest software.

[6] = tested on: HPV18 CVLP-stimulated human T cells; assay: Restimulating HPV18 CVLP-stimulated T cells with BLCL presenting Q38, Q39, Q46 or Q47 (example 13); assay type: cell-based; details: conclusion from FIG. 12 top right
Procedure: In analogy with example 6, human T cells (4×10^5) derived from a non-HLA-typed blood donor were stimulated with HPV18L1ΔCDIE71-53DI CVLPs and HPV18L1ΔCDIE71-60DI CVLPs and harvested.
The T cells were then restimulated, at 37° C. and in 100 μl of medium, with in each case 1 μg of peptide Q38, Q39, Q46 or Q47/ml and 10^5 antigen-presenting cells (donor-identical BLCL) in the presence of 10 IU of IL2/ml. Cells which were only incubated with buffer served as the negative control while cells which were incubated with the HPV18 L1 peptide pool or the E7 peptide pool served as positive controls.
as §2

## ASSNYFPTPSGSMVTSDAQI [P27, HPV16 L1 287-306]
[1]
  T cell epitope assignment: contain a T helper epitope

## GDSMFFCLRREQLFARHFWN [Q23, HPV18 L1 243-262]
[2]
  proportion of CD8-positive T cells reactive on the basis of IFNγ expression: brought about a restimulation
  T cell epitope assignment: contain H2k-restricted cytotoxic T cell epitopes

## VGNPYFRVPAGGGNKQDIPK [Q5, HPV18 L1 45-64]
[2]
  proportion of CD8-positive T cells reactive on the basis of IFNγ expression: brought about a restimulation
  T cell epitope assignment: contain H2k-restricted cytotoxic T cell epitopes

## VTVVDTTRSTNNSLCAAIST [P31, HPV16 L1 331-350]
[1]
  T cell epitope assignment: contain a T helper epitope

## YIKGSGSTANLASSNYFPTP [P26, HPV16 L1 276-295]
[1]
  T cell epitope assignment: contain a T helper epitope

## HGPKATLQDI [E72-11, HPV18 E7 2-11]
[3]
  reactive CD8-positive T cells (IFNγ, FACScan): brought about a restimulation
  T cell epitope assignment: contain an H2b-restricted cytotoxic T cell epitope

## MSLWLPSEATVYLPPVPVSK [P1, HPV16 L1 1-20]
[4]
  T cell epitope assignment: contain a cytotoxic T cell epitope

## SSADDLRAFQQLFLNTLSFV [Q51, HPV18 E7 78-97]
[2]
  proportion of CD8-positive T cells reactive on the basis of IFNγ expression: brought about a restimulation
  T cell epitope assignment: contain H2k-restricted cytotoxic T cell epitopes

## WACVGVEVGRGQPLGVGISG [P10, HPV16 L1 100-119]
[1]
  T cell epitope assignment: contain a T helper epitope

## LELINTVIQDGDMVDTGFGA [P18, HPV16 L1 188-207]
[5]
  proportion of CD8-positive T cells reactive on the basis of IFNγ expression: brought about a restimulation
  T cell epitope assignment: contain H2b-restricted cytotoxic T cell epitopes
[1]
  T cell epitope assignment: contain a T helper epitope

## YCYEQLNDSSEEEDEIDGPA [P46, HPV16 E7 23-42]
[4]
  T cell epitope assignment: contain a cytotoxic T cell epitope

## PDYLQMSADPYGDSMFFCLR [Q22, HPV18 L1 232-251]
[2]
  proportion of CD8-positive T cells reactive on the basis of IFNγ expression: brought about a restimulation
  T cell epitope assignment: contain H2k-restricted cytotoxic T cell epitopes

## CC[C@H](C)[C@H](NC(=O)[C@H](C)NC(=O)[C@@H](NC(=O)[C@H](CO)NC(=O)[C@H](CCC(N)=O)NC(=O)[C@@H](NC(=O)[C@H](Cc1ccccc1)NC(=O)[C@H](CCCNC(=N)N)NC(=O)[C@@H](N)Cc1ccc(O)cc1)C(C)C)C(C)C)C(=O)N[C@H](C(=O)N[C@@H](CS)C(=O)N[C@@H](CCC(N)=O)C(=O)N[C@@H](CCCCN)C(=O)N[C@@H](CC(=O)O)C(=O)N[C@@H](C)C(=O)N[C@@H](C)C(=O)N1CCC[C@H]1C(=O)N[C@@H](C)C(=O)N[C@@H](CCC(=O)O)C(=O)N[C@@H](CC(N)=O)C(=O)O)[C@@H](C)O [Q39]
[6]
  T cell epitope assignment (cytotoxic): contain cytotoxic T cell epitopes

## GDSLFFYLRREQMFVRHLFN [P23, HPV16 L1 243-262]
[1]
  T cell epitope assignment: contain a T helper epitope

## NTDDYVTRTSIFYHAGSSRL [Q3, HPV18 L1 23-42]
[3]
  reactive CD8-positive T cells (IFNγ, FACScan): brought about a restimulation
  T cell epitope assignment: contain an H2b-restricted cytotoxic T cell epitope

## STDEYVARTNIYYHAGTSRL [P3, HPV16 L1 23-42]
[5]
  proportion of CD8-positive T cells reactive on the basis of IFNγ expression: brought about a restimulation
  T cell epitope assignment: contain H2b-restricted cytotoxic T cell epitopes
[4]
  T cell epitope assignment: contain a cytotoxic T cell epitope

## MHGPKATL [E71-8, HPV18 E7 1-8]
[3]
  reactive CD8-positive T cells (IFNγ, FACScan): brought about a restimulation
  T cell epitope assignment: contain an H2b-restricted cytotoxic T cell epitope

## QLCLIGCKPPIGEHWGKGSP [P15, HPV16 L1 155-174]
[1]
  T cell epitope assignment: contain a T helper epitope

## IFQLCKITLTADVMTYIHSM [P35, HPV16 L1 375-394]
[5]
  proportion of CD8-positive T cells reactive on the basis of IFNγ expression: brought about a restimulation
  T cell epitope assignment: contain H2b-restricted cytotoxic T cell epitopes

## QPLGVGISGHPLLNKLDDTE [P11, HPV16 L1 111-130]
[1]
  T cell epitope assignment: contain a T helper epitope

## MLDLQPETTDLYCYEQLNDS [P45, HPV16 E7 12-31]
[4]
  T cell epitope assignment: contain a cytotoxic T cell epitope

## DMVDTGFGAMDFTTLQANKS [P19, HPV16 L1 199-218]
[5]
  proportion of CD8-positive T cells reactive on the basis of IFNγ expression: brought about a restimulation
  T cell epitope assignment: contain H2b-restricted cytotoxic T cell epitopes
[1]
  T cell epitope assignment: contain a T helper epitope

## FYHAGSSRLLTVGNPYFRVP [Q4, HPV18 L1 34-53]
[3]
  reactive CD8-positive T cells (IFNγ, FACScan): brought about a restimulation
  T cell epitope assignment: contain an H2b-restricted cytotoxic T cell epitope

## PLGRKFLLQAGMHGDTPTLH [P43, HPV16 L1 463-473 and E7 1-9]
[5]
  proportion of CD8-positive T cells reactive on the basis of IFNγ expression: brought about a restimulation
  T cell epitope assignment: contain H2b-restricted cytotoxic T cell epitopes
[4]
  T cell epitope assignment: contain a cytotoxic T cell epitope

## NNNKILVPKVSGLQYRVFRI [P6, HPV16 L1 56-75]
[4]
  T cell epitope assignment: contain a cytotoxic T cell epitope

## GMHGPKATL [L1474E71-8, HPV18 L1 474 and E7 1-8]
[3]
  reactive CD8-positive T cells (IFNγ, FACScan): brought about a restimulation
  T cell epitope assignment: contain an H2b-restricted cytotoxic T cell epitope

## LKKYTFWEVNLKEKFSADLD [P41, HPV16 L1 441-460]
[4]
  T cell epitope assignment: contain a cytotoxic T cell epitope
